Data published in patent US8993552B2, “Compositions and methods for treatment of leukemia” (The Regents of The University of Michigan, priority 2009, dated 2015).
Entries after “also recorded” stand apart in the source; their conditions may differ. Where two headings read alike, the source gives them in different places.

Experiments:
[1] = Solubility (stated in words); assay type: physicochemical; details: relative to Compound 1, in words
[2] = system: human leukemia cell lines with MLL translocations (MV4;11, ML-2, KOPN-8, Karpas 45); assay: ATP-based luminescence cell viability assay in MLL leukemia cell lines; details: range over MLL leukemia cell lines
[3] = system: Hep-G2 (liver) cell line; assay: MTT viability assay, liver cell line
[4] = system: HK-2 (kidney) cell line; assay: MTT viability assay, kidney cell line
[5] = target: T1, menin-MLL interaction (Homo sapiens (Human), UniProt O00255); assay: Fluorescence polarization (FP) competition assay with fluorescein-labeled MLL peptide; assay type: binding;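 also: Read-out is fluorescence anisotropy of fluorescein-labeled MLL peptide bound to menin, inhibitors displace the peptide and lower anisotropy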
T1 sequence (O00255 whole entry): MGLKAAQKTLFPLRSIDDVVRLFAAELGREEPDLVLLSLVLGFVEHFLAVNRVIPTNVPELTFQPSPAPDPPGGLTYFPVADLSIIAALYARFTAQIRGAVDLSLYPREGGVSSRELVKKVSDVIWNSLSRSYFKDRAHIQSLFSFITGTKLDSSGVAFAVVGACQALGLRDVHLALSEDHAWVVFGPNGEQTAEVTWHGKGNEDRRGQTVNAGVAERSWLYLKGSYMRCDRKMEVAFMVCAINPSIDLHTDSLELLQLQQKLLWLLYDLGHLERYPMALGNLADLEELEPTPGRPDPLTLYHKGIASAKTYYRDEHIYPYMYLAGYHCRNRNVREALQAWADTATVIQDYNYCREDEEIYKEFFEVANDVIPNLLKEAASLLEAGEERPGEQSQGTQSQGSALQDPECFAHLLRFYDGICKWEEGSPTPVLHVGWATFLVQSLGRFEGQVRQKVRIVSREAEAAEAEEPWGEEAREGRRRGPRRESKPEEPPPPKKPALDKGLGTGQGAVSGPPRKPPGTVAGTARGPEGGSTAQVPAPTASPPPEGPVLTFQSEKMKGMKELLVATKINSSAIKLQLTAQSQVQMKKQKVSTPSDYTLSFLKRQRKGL

[6] = target: T1, menin-MLL interaction; assay: HTRF (TR-FRET) assay, His-tagged menin and biotinylated MLL peptide; assay type: binding; details: Table 3
[7] = system: human leukemia cell lines with MLL translocations (MV4;11, KOPN-8, THP-1, MonoMac6); assay: MTT viability assay in MLL leukemia cell lines; assay type: cell-based; details: in words
[8] = system: THP-1 leukemia cells; assay: Differentiation of THP-1 cells, CD11b by flow cytometry; assay type: cell-based, human
Source text: Thienopyrimidine and benzodiazepine compounds induce differentiation of the MLL leukemia cells.

[9] = system: MV4;11 cells (MLL-AF4); assay: Annexin V/PI staining flow cytometry
[10] = system: THP-1 cells (MLL-AF9); assay: Annexin V/PI staining flow cytometry
[11] = system: Hoxa9 promoter; assay: Luciferase reporter assay in HEK293 cells transfected with MLL-AF9
[12] = target: T1, menin-MLL interaction; details: 50 μM and 25 μM compound, vs DMSO control
[13] = system: non-MLL leukemia cell lines (Kasumi-1, ME-1); assay: MTT viability assay in non-MLL leukemia cell lines; assay type: cell-based, human; details: Kasumi-1 (AML1-ETO), ME-1 (CBFβ-SMMHC)
[14] = system: Hoxa9 and Meis1 expression; assay: qRT-PCR of MLL downstream targets in THP-1 cells
[15] = system: mouse bone marrow transduced with MLL-AF9; assay: MTT viability assay, transduced mouse bone marrow; assay type: cell-based
Source text: (§1) Effects of thienopyrimidine compounds on mouse bone marrow transduced with MLL-AF9 and MLL-ENL.

[16] = system: mouse bone marrow transduced with MLL-ENL; assay: MTT viability assay, transduced mouse bone marrow; assay type: cell-based
Source text: as §1

[17] = system: mouse bone marrow transduced with E2A-HLF; assay: MTT viability assay, transduced mouse bone marrow (negative control); assay type: cell-based
[18] = Table 3, NA = no activity, read-out: IC50 in FP assay with FLSN-MLL
[19] = Table 2, FP assay, read-out: IC50

For `CCc1cc2c(N3CCN(c4nnc(CC)s4)CC3)ncnc2s1` [Compound 4], the solubility [1] was “improved solubility”, the GI50 [2] was 7 to 25 µM and the “toxicity in viability assay” value [3] was “no substantial signs of toxicity”. The “toxicity in viability assay” value ([3]; listed as Compounds 4) was “no signs of substantial toxicity”, the “toxicity in viability assay” value [4] was “no substantial signs of toxicity” and the “toxicity in viability assay” value ([4]; listed as Compounds 4) was “no signs of substantial toxicity”.

In the case of `CC(=O)N1c2ccccc2NC2=C(C(=O)CC(c3ccc(C(C)(C)C)cc3)C2)C1c1cccnc1` (centres unmarked) [Compound 32], the IC50 [5, 18] is reported as 13 µM, the IC50 ([5]; re-tested by FP and HTRF, read-out: IC50 for inhibition of the menin-MLL interaction) is reported as 13 µM and the IC50 [6] is reported as 7 µM. The “growth inhibition of MLL leukemia cells” value [7] was “substantial growth inhibition; also recorded: strongly inhibited growth”, the “expression of CD11b on the cell surface” value [8] was “increased expression of CD11b” and the “toxicity in viability assay” value [3] was “no signs of substantial toxicity”. The apoptotic cells ([9]; 25 μM) was greater than 20%, the dead cells ([9]; 25 μM) was greater than 20% and the “induction of apoptosis and cell death” value ([9]; 25 μM and 50 μM, in words) was “substantial apoptosis and cell death”. For the same compound, the “induction of apoptosis and cell death” value ([10]; 25 μM and 50 μM, in words) was “substantial apoptosis and cell death”, the apoptotic cells ([10]; 50 μM) was “about 20%” and the dead cells ([10]; 50 μM) was greater than 40%. The “toxicity in viability assay” value [4] was “no signs of substantial toxicity”, the “transactivation of the Hoxa9 promoter” value [11] was “effectively inhibit; also recorded: dose dependent inhibition” and the “inhibition of the menin-MLL interaction in cells (co-IP)” value (“inhibition of the menin-MLL interaction” below) [12] was “effectively inhibit”.

In the case of `O=C1CC(c2ccc3c(c2)OCO3)CC2=C1C(c1ccncc1)Nc1ccccc1N2` (centres unmarked) [Compound 39], the IC50 [5, 18] is reported as 230 µM, the “growth inhibition of MLL leukemia cells” value [7] is reported as “no effect; also recorded: no growth inhibition” and the “transactivation of the Hoxa9 promoter” value [11] is reported as “No effect”.

For `CCc1cc2c(N3CCN(C(=O)c4ccco4)CC3)ncnc2s1` [Compound 63], the IC50 [5, 19] was 12 µM, the “effect on growth of non-MLL leukemia cell lines” value [13] was “No or very limited effect” and the “expression level of Hoxa9 and Meis1” value [14] was “Downregulation”.

In the case of `CC(C)c1cc2c(N3CCN(C4=NCC(C)(C)S4)CC3)ncnc2s1` [Compound 67], the IC50 [5, 19] is reported as 0.65 µM, the “in vitro activity in FP assay relative to parent Compound 1” value ([5]; in words) is reported as “more potent activity” and the “expression of CD11b on the cell surface” value [8] is reported as “increased expression of CD11b”. The “inhibition of the menin-MLL interaction” value [12] was “effectively inhibit”.

In the case of `CCCc1cc2c(N3CCN(C4=NCC(C)(C)S4)CC3)ncnc2s1` [Compound 70], the “growth inhibition of MLL leukemia cells” value [7] is reported as “Very effective growth inhibition”, the “effect on growth of non-MLL leukemia cell lines” value [13] is reported as “no effect on the cell growth” and the “inhibition of cell growth” value [15] is reported as “substantial inhibition of cell growth”. For the same compound, the “inhibition of cell growth” value [16] was “substantial inhibition of cell growth”, the “inhibition of cell growth” value [17] was “no significant inhibition of cell growth” and the “expression of CD11b on the cell surface” value [8] was “increased expression of CD11b”. For the same compound, the “expression level of Hoxa9 and Meis1” value [14] was “Downregulation” and the “inhibition of the menin-MLL interaction” value [12] was “effectively inhibit”.

In the case of `CC(=O)N1c2ccccc2NC2=C(C(=O)CC(c3ccc(Cl)c(Cl)c3)C2)C1c1cccnc1` (centres unmarked) [Compound 86], the IC50 ([5]; FP competition, read-out: IC50 for inhibition of the menin-MLL interaction) is reported as 7.4 µM, the IC50 [5, 18] is reported as 7.4 µM and the “growth inhibition of MLL leukemia cells” value [7] is reported as “strongly inhibited growth”. For the same compound, the “effect on growth of non-MLL leukemia cell lines” value [13] was “no or very limited effect on cell growth” and the “expression level of Hoxa9 and Meis1” value [14] was “Downregulation of Hoxa9 and Meis1 expression”.
